These results are taken from PMC6295333 (Biochemistry, 2018).

This test deals with Nicotine oxidoreductase (NicA2) (Pseudomonas putida, UniProt F8G0P2). In words: X-ray crystal structure at […] Å. Format: binding.
Chain of Nicotine oxidoreductase (NicA2) (F8G0P2 whole entry): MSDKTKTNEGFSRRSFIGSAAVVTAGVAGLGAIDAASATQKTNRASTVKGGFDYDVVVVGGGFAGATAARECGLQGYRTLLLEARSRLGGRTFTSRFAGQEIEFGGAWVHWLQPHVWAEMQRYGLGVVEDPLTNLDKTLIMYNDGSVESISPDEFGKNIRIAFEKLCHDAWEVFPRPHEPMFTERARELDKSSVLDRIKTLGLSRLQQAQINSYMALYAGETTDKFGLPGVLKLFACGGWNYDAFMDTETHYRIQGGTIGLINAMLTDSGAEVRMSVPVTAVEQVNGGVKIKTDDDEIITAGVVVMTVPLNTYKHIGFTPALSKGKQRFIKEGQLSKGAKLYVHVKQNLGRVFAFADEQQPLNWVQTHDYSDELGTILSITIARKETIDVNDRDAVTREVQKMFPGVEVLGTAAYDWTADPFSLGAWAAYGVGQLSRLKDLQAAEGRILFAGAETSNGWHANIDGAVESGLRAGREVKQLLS

With `Cc1cc2nc3c(=O)[nH]c(=O)nc-3n(C[C@H](O)[C@H](O)[C@H](O)COP(=O)(O)OP(=O)(O)OC[C@H]3O[C@@H](n4cnc5c(N)ncnc54)[C@H](O)[C@@H]3O)c2cc1C` [FAD], the “X-ray crystal structure at 2.65 Å” value is listed as “The general positioning of FAD is clearly defined in the electron density maps”.
